# Structures can show the parent of a compound that is named as a salt. Where two headings read alike, the source gives them in different places.
# Assays:
# clinical = conditions: for Concentration equivalent to peak plasma concentration (Cmax): human plasma; for Cmax: human, in vivo
# Description: The inhaled doses represent the expected systemic delivered dose and were estimated from the fine particle dose delivered ex-actuator.
# [1] = target: Serotonin receptor subtype 1E (Homo sapiens, UniProt P28566); conditions: read-out: Affinity IC50; cited from earlier work
# [2] = target: Adrenergic receptor subtype α1b (Homo sapiens, UniProt P35368); conditions: read-out: Affinity IC50; cited from earlier work
# [3] = target: Dopaminergic receptor subtype D4 (Homo sapiens, UniProt P21917); conditions: read-out: Affinity IC50; cited from earlier work
# [4] = target: Serotonin receptor subtype 2C (Homo sapiens, UniProt P28335); conditions: read-out: Affinity IC50; cited from earlier work
# muscarinic (M) receptors = conditions: cited from earlier work
# [5] = target: Serotonin receptor subtype 1D (Homo sapiens, UniProt P28221); conditions: read-out: Affinity IC50; cited from earlier work
# [6] = target: Dopaminergic receptor subtype D2 (Homo sapiens, UniProt P14416); conditions: read-out: Affinity IC50; cited from earlier work
# [7] = target: Adrenergic receptor subtype β3 (Homo sapiens, UniProt P13945); conditions: read-out: Affinity IC50; cited from earlier work
# [8] = Side effects in clinical study of IV versus inhaled DHE; type: in vivo, human
# Description: The inventors have discovered that these slightly delayed, lower peak pharmacokinetic profiles are associated with minimized side effects.
# 5-HT2B receptors = 5-HT2B receptors (Homo sapiens, UniProt P41595); assay: Selective agonism at various concentrations of DHE (FIG. 5); type: biochemical; conditions: orally-inhaled DHE concentrations (6.25 nM at Cmax of 4 inhalations)
# Description: (§1) Agonists of 5-HT1B subtype receptors are known to be useful in the treatment of migraine and associated symptoms. 5-HT2B receptors are known to play a triggering role in the onset of migraine.
# 5-HT1B receptors = 5-HT1B receptors (Homo sapiens, UniProt P28222); assay: as above; type: biochemical; conditions: 5 μm control, 77.6 nM (IV Cmax), 6.25 nM (4 inhalations Cmax), 0.25 nM
# Description: as §1
# [9] = target: Serotonin receptor subtype 1B (Homo sapiens, UniProt P28222); conditions: read-out: Affinity IC50; cited from earlier work
# 5-HT3 receptors [10] = target: T1, 5-HT3 receptors (Homo sapiens, UniProt P46098); assay: Functional assays at 5-HT3 receptors; type: biochemical
# Description: 5-HT3 receptors are known to be implicated in nausea. Antagonists at these receptors, such as ondansetron and granisetron prevent chemotherapy-induced nausea and vomiting.
# 5-HT3 receptors [11] = target: T1, 5-HT3 receptors; assay: Radioligand receptor binding at concentrations equivalent to Cmax; conditions: all DHE delivery routes investigated, <20% classed as inactive
# Description: (§2) “(h)” represents cloned human receptor subtypes.
# (§3) Table 2 presents in vitro concentrations equivalent to Cmax.
# 5-HT1B = assay: as above
# Description: as §2, §3
# 5-HT1D receptors = 5-HT1D receptors (Homo sapiens, UniProt P28221); assay: as above; conditions: following inhalation, compared with IV
# Description: as §2, §3
# [12] = target: Adrenergic receptor subtype β1 (Homo sapiens, UniProt P08588); conditions: read-out: Affinity IC50; cited from earlier work
# [13] = target: Dopaminergic receptor subtype D3 (Homo sapiens, UniProt P35462); conditions: read-out: Affinity IC50; cited from earlier work
# [14] = target: Serotonin receptor subtype 1A (Homo sapiens, UniProt P08908); conditions: read-out: Affinity IC50; cited from earlier work
# D2 receptor = D2 receptor (Homo sapiens, UniProt P14416); assay: Radioligand receptor binding at concentrations equivalent to Cmax
# Description: “(h)” represents cloned human receptor subtypes and “NS” indicates non-specific binding.
# as §3
# [15] = target: Serotonin receptor subtype 1F (Homo sapiens, UniProt P30939); conditions: read-out: Affinity IC50; cited from earlier work
# [16] = target: Serotonin receptor subtype 5; conditions: read-out: Affinity IC50; cited from earlier work
# [17] = given subcutaneously at a concentration of only 1.5 mM; cited from earlier work
# [18] = target: Serotonin receptor subtype 3 (Homo sapiens, UniProt P46098); conditions: read-out: Affinity IC50; cited from earlier work
# [19] = tested on: migraine pain in subjects; assay: Relief from migraine pain after inhaled DHE (FIG. 1); type: in vivo, human; conditions: administration giving the two lower peak plasma profiles of FIG. 2
# [20] = target: Adrenergic receptor subtype α1a (Homo sapiens, UniProt P35348); conditions: read-out: Affinity IC50; cited from earlier work
# [21] = cited from earlier work
# [22] = pulmonary delivery; cited from earlier work
# [23] = after inhalable administration of DHE
# T1 sequence (P46098 24-478): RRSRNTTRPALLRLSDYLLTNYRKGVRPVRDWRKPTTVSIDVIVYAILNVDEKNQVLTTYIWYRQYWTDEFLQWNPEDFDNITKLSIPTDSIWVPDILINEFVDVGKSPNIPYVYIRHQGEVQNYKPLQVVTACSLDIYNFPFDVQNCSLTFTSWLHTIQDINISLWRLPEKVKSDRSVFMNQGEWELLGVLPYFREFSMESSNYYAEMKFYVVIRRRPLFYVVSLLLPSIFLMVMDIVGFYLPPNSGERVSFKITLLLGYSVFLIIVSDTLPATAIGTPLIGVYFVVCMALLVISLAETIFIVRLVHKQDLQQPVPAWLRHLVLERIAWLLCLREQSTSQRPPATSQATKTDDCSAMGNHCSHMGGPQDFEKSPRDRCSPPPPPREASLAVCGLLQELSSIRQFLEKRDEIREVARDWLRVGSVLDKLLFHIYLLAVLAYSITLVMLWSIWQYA
# D2 receptor, sequence (P14416 whole entry): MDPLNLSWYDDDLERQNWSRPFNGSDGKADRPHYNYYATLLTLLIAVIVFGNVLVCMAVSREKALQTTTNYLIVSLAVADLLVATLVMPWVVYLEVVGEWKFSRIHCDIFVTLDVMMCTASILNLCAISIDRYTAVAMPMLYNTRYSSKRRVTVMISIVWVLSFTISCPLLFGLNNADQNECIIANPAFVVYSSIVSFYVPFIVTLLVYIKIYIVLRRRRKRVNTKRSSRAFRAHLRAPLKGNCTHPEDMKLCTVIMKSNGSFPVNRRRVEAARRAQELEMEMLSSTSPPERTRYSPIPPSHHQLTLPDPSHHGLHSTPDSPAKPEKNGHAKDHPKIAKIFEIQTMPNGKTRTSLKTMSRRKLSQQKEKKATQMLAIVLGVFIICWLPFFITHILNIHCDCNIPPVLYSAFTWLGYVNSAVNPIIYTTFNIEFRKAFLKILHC
# Serotonin receptor subtype 1E, sequence (P28566 whole entry): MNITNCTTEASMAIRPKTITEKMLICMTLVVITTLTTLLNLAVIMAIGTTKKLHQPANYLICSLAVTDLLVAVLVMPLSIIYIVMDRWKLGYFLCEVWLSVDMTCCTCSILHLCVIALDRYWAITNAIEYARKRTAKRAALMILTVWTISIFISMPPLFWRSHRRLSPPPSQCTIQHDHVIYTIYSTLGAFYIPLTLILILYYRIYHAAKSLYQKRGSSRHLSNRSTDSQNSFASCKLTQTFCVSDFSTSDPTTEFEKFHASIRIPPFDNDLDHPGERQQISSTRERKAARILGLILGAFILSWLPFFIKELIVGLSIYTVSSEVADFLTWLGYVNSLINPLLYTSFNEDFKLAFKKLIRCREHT
# Adrenergic receptor subtype β1, sequence (P08588 whole entry): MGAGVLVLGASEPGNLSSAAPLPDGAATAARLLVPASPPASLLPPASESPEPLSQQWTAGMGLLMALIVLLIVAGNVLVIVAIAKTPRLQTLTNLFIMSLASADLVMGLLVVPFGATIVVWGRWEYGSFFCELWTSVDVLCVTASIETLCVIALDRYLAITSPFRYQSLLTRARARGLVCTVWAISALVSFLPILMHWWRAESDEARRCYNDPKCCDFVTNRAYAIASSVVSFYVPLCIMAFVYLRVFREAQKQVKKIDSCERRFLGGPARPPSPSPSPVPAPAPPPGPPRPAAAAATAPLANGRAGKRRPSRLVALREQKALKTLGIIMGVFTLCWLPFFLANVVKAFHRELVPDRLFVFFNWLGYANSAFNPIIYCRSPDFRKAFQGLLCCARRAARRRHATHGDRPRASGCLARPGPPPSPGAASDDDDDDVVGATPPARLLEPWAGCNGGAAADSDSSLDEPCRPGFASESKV
# Adrenergic receptor subtype β3, sequence (P13945 whole entry): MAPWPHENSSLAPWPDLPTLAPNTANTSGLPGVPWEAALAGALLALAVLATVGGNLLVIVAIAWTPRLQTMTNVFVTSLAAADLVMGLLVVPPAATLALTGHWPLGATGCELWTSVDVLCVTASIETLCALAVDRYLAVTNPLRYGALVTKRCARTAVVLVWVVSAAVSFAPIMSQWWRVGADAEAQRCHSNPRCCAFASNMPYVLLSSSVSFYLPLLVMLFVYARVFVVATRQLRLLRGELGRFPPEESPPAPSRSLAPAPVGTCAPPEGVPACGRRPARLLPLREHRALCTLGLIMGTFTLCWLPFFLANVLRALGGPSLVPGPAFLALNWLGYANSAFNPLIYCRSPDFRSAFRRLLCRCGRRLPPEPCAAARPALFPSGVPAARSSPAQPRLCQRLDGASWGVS
# 5-HT1D receptors, sequence (P28221 whole entry): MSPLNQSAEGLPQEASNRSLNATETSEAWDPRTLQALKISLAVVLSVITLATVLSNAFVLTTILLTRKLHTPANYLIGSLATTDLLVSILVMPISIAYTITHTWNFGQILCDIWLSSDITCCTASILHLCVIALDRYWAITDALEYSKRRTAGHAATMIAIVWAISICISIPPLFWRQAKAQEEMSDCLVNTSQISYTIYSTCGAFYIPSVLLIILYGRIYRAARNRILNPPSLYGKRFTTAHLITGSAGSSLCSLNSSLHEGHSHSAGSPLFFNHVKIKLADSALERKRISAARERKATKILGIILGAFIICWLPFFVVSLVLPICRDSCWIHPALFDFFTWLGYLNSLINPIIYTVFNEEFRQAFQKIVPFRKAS
# Serotonin receptor subtype 1D, sequence (P28221 whole entry): as above
# Serotonin receptor subtype 1B, sequence (P28222 whole entry): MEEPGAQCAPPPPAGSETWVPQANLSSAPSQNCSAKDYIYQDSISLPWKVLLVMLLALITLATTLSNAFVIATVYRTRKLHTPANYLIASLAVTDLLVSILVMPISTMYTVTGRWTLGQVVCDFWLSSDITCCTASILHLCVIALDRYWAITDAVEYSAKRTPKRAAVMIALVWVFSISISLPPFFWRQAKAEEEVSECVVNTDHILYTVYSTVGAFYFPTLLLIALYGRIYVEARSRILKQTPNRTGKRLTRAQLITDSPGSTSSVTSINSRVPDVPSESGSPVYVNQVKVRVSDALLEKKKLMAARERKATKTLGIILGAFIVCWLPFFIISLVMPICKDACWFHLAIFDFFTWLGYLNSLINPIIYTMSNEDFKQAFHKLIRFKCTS
# 5-HT1B receptors, sequence (P28222 whole entry): as above
# Serotonin receptor subtype 3, sequence (P46098 24-478): as the sequence (P46098 24-478) above
# Adrenergic receptor subtype α1a, sequence (P35348 whole entry): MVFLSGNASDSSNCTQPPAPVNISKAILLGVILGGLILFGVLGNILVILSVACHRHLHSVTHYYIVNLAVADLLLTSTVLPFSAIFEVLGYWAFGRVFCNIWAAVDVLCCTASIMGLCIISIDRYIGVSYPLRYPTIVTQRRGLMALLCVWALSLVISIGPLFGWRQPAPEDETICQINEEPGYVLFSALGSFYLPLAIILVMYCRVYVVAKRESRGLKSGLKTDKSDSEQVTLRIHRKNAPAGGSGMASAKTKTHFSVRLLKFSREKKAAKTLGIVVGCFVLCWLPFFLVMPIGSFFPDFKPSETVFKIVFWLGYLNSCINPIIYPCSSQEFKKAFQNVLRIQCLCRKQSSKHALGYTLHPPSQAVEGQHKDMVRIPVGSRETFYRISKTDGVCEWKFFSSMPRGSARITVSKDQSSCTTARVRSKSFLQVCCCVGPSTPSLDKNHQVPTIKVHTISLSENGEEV
# Serotonin receptor subtype 1A, sequence (P08908 whole entry): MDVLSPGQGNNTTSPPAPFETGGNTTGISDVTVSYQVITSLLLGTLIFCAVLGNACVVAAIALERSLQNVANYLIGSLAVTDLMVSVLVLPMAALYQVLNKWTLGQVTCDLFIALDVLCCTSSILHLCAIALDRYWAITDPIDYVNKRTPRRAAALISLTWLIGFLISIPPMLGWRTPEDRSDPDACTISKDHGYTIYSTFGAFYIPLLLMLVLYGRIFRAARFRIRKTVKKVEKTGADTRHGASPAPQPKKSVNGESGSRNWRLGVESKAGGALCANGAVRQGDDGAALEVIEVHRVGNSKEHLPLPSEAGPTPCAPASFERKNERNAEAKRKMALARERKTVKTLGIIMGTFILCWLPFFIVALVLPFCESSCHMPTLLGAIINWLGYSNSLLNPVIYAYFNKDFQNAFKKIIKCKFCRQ
# Adrenergic receptor subtype α1b, sequence (P35368 whole entry): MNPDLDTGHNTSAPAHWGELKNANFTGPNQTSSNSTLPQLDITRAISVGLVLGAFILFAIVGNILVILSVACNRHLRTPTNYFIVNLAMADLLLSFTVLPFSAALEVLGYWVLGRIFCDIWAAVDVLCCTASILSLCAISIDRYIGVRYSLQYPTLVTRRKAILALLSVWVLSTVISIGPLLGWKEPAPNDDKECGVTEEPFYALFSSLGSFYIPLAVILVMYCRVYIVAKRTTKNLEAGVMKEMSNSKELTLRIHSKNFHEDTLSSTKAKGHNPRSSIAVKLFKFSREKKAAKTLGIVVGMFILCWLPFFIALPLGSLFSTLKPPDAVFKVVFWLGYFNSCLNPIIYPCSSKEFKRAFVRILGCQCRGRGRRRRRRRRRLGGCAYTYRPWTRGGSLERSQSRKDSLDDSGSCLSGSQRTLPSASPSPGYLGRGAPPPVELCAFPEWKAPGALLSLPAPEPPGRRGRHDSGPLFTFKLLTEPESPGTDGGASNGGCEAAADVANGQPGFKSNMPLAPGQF
# Dopaminergic receptor subtype D2, sequence (P14416 whole entry): as the sequence (P14416 whole entry) above
# Dopaminergic receptor subtype D4, sequence (P21917 whole entry): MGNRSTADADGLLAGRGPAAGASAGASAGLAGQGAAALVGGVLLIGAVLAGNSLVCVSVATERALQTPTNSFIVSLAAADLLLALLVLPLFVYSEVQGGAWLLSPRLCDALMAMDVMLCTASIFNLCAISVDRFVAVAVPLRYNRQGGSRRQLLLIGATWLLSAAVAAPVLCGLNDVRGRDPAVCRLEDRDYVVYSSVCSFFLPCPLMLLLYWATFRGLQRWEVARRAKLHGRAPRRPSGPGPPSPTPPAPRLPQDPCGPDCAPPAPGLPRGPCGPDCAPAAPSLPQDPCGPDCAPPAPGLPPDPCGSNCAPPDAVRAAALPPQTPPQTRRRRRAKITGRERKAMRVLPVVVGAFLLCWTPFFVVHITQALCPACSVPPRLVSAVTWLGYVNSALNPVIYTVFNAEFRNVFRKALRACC
compound,measurement,setting,value
CN1C[C@H](C(=O)N[C@]2(C)O[C@@]3(O)[C@@H]4CCC(O)N4C(=O)[C@H](Cc4ccccc4)N3C2=O)C[C@@H]2c3cccc4[nH]cc(c34)C[C@H]21 (stereo partly drawn) [8′-OH Dihydroergotamine],Concentration equivalent to peak plasma concentration (Cmax),clinical; after DHE 0.44 mg inhaled,0.058 ng/mL
same,Concentration equivalent to peak plasma concentration (Cmax),clinical; after DHE 0.88 mg inhaled,0.149 ng/mL
same,Concentration equivalent to peak plasma concentration (Cmax),clinical; after DHE 1 mg IV (infusion over 3 minutes),0.378 ng/mL
same,Tmax of primary metabolite in circulating plasma,clinical; [23],less than 90 minutes
same,peak plasma concentration of metabolite at Cmax,clinical; [23],"less than 1,000 pg/ml"
"CN1C[C@H](C(=O)N[C@]2(C)O[C@@]3(O)[C@@H]4CCCN4C(=O)[C@H](Cc4ccccc4)N3C2=O)C[C@@H]2c3cccc4[nH]cc(c34)C[C@H]21 [DHE, dihydroergotamine mesylate]",IC50,[1],1100 nM
same,IC50,[2],8.3 nM
same,time to rapid plasma levels,clinical; all three methods of administration (FIG. 2),≤ 20 min
same,difference in AUC,clinical; between 1 mg IV and 0.88 mg inhaled,1.2 fold
same,Cmax,"clinical; inhaled or intranasal, 0.44 mg",1.34 ng/mL
same,Cmax,"clinical; inhaled or intranasal, 0.88 mg",4.29 ng/mL
same,Cmax,"clinical; iv, 1 mg",53.2 ng/mL
same,IC50,[3],8.7 nM
same,IC50,[4],1.3 nM
same,binding activity at muscarinic (M) receptors,muscarinic (M) receptors,minimal binding activity
same,IC50,[5],0.5 nM
same,IC50,[6],1.2 nM
same,IC50,[7],271 nM
same,side effects observed,[8]; 0.44 mg dose inhaled,no side effects were observed
same,"Dizziness, subjects (%)","[8]; 0.88 mg DHE Inhaled, n = 12",1 (8) (%)
same,"Feeling hot, subjects (%)","[8]; 0.88 mg DHE Inhaled, n = 12",0 (%)
same,"Nausea, subjects (%)","[8]; 0.88 mg DHE Inhaled, n = 12",1 (8) (%)
same,"Paresthesia, subjects (%)","[8]; 0.88 mg DHE Inhaled, n = 12",0 (%)
same,"Vomiting, subjects (%)","[8]; 0.88 mg DHE Inhaled, n = 12",0 (%)
same,side effects observed,[8]; 0.88 mg dose inhaled,only minor side effects
same,"Dizziness, number considered by investigator related to study drug (r)","[8]; 1 mg DHE IV, n = 16",7
same,"Dizziness, subjects (%)","[8]; 1 mg DHE IV, n = 16",7 (44) (%)
same,"Feeling hot, number considered by investigator related to study drug (r)","[8]; 1 mg DHE IV, n = 16",3
same,"Feeling hot, subjects (%)","[8]; 1 mg DHE IV, n = 16",3 (19) (%)
same,"Nausea, number considered by investigator related to study drug (r)","[8]; 1 mg DHE IV, n = 16",10
same,"Nausea, subjects (%)","[8]; 1 mg DHE IV, n = 16",10 (63) (%)
same,"Paresthesia, number considered by investigator related to study drug (r)","[8]; 1 mg DHE IV, n = 16",5
same,"Paresthesia, subjects (%)","[8]; 1 mg DHE IV, n = 16",5 (31) (%)
same,"Vomiting, number considered by investigator related to study drug (r)","[8]; 1 mg DHE IV, n = 16",2
same,"Vomiting, subjects (%)","[8]; 1 mg DHE IV, n = 16",2 (13) (%)
same,side effects observed,[8]; 1.0 mg IV DHE,significant side effects including nausea and emesis
same,incidence of nausea,[8]; inhaled,8%
same,incidence of nausea,[8]; intravenous administration,63%
same,agonism at 5-HT2B receptors,5-HT2B receptors,agonism is absent
same,agonism at 5-HT1B receptors,5-HT1B receptors,maintained across all concentrations
same,IC50,[9],0.7 nM
same,agonist or antagonist activity at 5-HT3 receptors,5-HT3 receptors [10],lack of agonist or antagonist activity
same,binding at 5-HT3 receptors,5-HT3 receptors [11],< 20%
same,binding at 5-HT1B,5-HT1B; Cmax following 0.88 mg inhaled dosing,100%
same,binding at 5-HT1B,5-HT1B; Cmax following 1 mg intravenous dosing,100%
same,apparent binding at 5-HT1D receptors,5-HT1D receptors,lower than IV
same,IC50,[12],3100 nM
same,IC50,[13],6.4 nM
same,IC50,[14],0.4 nM
same,receptor binding in D2 assays,D2 receptor; IV dose Cmax levels,50%
same,binding in D2 assays,D2 receptor; after inhaled dosing (Cmax levels),no binding affinity
same,IC50,[15],180 nM
same,IC50,[16],60 nM
same,treated patients with nausea,[17],~16%
same,IC50,[18],3700 nM
same,time to rapid pain relief,[19],≤ 10 min
same,IC50,[20],6.6 nM
"CN1C[C@H](C(=O)N[C@]2(C)O[C@@]3(O)[C@@H]4CCCN4C(=O)[C@H](Cc4ccccc4)N3C2=O)C=C2c3cccc4[nH]cc(c34)C[C@H]21 [Ergotamine, ergotamine tartrate]",onset of therapeutic efficacy,[21]; intranasal,45 min
same,onset of therapeutic efficacy,[21]; oral or sublingual delivery,120 min
same,bioavailability,[22],up to 92%

# From patent US9833451B2 (priority 2007, dated 2017)
